Experimental data: ChEMBL document CHEMBL1144392, “2,3-Diaminopyridine as a platform for designing structurally unique nonpeptide bradykinin B1 receptor antagonists” (Bioorg Med Chem Lett, 2005)

Columns and labels:
[1] = Half life in the Sprague Dawley rats; (n = 3); type: ADME; conditions: rat, in vivo
B1 bradykinin receptor = molecular target: T1, B1 bradykinin receptor (Homo sapiens, UniProt P46663); assay: Inhibitory constant against human Bradykinin receptor B1 expressed in chinese hamster ovary cells; type: cell-based, CHO
T1 sequence (P46663 whole entry): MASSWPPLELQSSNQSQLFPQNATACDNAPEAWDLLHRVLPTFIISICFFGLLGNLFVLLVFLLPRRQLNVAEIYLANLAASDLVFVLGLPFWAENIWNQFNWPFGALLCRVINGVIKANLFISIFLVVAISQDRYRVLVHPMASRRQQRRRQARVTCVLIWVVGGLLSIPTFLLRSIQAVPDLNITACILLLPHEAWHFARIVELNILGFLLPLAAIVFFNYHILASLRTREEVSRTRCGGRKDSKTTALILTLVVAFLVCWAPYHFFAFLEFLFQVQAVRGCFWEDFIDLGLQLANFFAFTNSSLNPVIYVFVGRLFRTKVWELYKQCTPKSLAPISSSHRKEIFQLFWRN

[2] = Clearance in the Sprague Dawley rats; (n = 3); type: ADME, organism-based; conditions: rat, in vivo
[3] = Oral bioavailability in the Sprague Dawley rats; (n = 3); type: ADME, organism-based; conditions: rat, in vivo
[4] = Half life in the Sprague Dawley rats; (n = 3); ND = not determined; type: ADME; conditions: rat, in vivo

| half-life [1] [min] | Ki (B1 bradykinin receptor) [nM] | clearance [2] [mL/min/kg] | bioavailability [3] [%] | half-life [4] [min] | Compound |
| --- | --- | --- | --- | --- | --- |
| 120 | 11.5 | 4.3 | 19 |  | Cc1ccnc(NCc2ccc(-c3ccccc3C(=O)O)cc2)c1NC(=O)CC#N |
|  | 119 |  |  |  | CCC(=O)Nc1cccnc1NCc1ccc(-c2ccccc2C(=O)OC)cc1 |
|  | 390 |  |  |  | COCC(=O)Nc1cccnc1NCc1ccc(-c2ccccc2C(=O)OC)cc1 |
| 24 | 88 | 23 | 15 |  | CCCC(=O)Nc1cccnc1NCc1ccc(-c2ccccc2C(=O)OC)cc1 |
|  |  | 35 | 9 | 12 | COC(=O)c1ccccc1-c1ccc(CNc2ncccc2NC(=O)CC(F)(F)F)cc1 |
| 30 | 6 | 31 | 25 |  | CNC(=O)c1ccccc1-c1ccc([C@@H](C)Nc2nccc(C)c2NC(=O)CC(F)(F)F)cc1 |
| 60 | 11 | 30 | 79 |  | CNC(=O)c1ccccc1-c1ccc(CNc2nccc(C)c2NC(=O)CC(F)(F)F)cc1 |
| 48 | 11 | 18 | 28 |  | COC(=O)c1ccccc1-c1ccc(CNc2ncccc2NC(=O)CC#N)cc1 |
| 12 |  | 30 | 2 |  | CCCCC(=O)Nc1cccnc1NCc1ccc(-c2ccccc2C(=O)OC)cc1 |
| 24 | 7.1 | 14 | 40 |  | COC(=O)c1ccccc1-c1ccc(CNc2nccc(C)c2NC(=O)CC(F)(F)F)cc1 |
| 54 | 1.8 | 8 | 17 |  | COC(=O)c1ccccc1-c1ccc([C@@H](C)Nc2nccc(C)c2NC(=O)CC(F)(F)F)cc1 |
| 12 | 2.6 | 18.5 | 27 |  | COC(=O)c1ccccc1-c1ccc([C@@H](C)Nc2nccc(C)c2NC(=O)CC#N)cc1 |
| 18 | 33 | 15 | 95 |  | CNC(=O)c1ccccc1-c1ccc(CNc2ncccc2NC(=O)CC(F)(F)F)cc1 |
|  | 40 |  |  |  | COC(=O)c1ccccc1-c1ccc(CNc2ncccc2NC(=O)CS(C)(=O)=O)cc1 |
|  | 1280 |  |  |  | COC(=O)c1ccccc1-c1ccc(CNc2ncccc2NC(=O)CN(C)C)cc1 |
|  | 230 |  |  |  | COC(=O)c1ccccc1-c1ccc(CNc2ncccc2NC(=O)C(C)C)cc1 |
